These results are taken from patent US11193164B2, “Methods of diagnosing and treating cancer targeting extrachromosomal DNA” (The Regents of the University of California, priority 2017, dated 2021).

Assay [1] deals with GBM39 cells. The experiment in a line: Next generation sequencing fine structure analysis of EGFRvIII amplification in GBM39 cultures. Format: cell-based, human. Particulars: Erlotinib Treatment (ERZ) sample (row 4), FIG. 13B, naive samples 110 to 150.
In assay [2] the test system is GBM39 cells. Put plainly: FISH images of EGFRvIII amplification (extrachromosomal or chromosomal DNA) in GBM39 cells. Format: cell-based, human. Particulars: FIG. 13A. As to the method:
Cytogenetics. Metaphase cells were obtained by treating cells with Karyomax (Gibco) at a final concentration of 0.01 μg/ml for 1-3 hours. Cells were collected, washed in PBS, and resuspended in 0.075 M KCl for 15-30 minutes. Carnoy's fixative (3:1 methanol/glacial acetic acid) was added dropwise to stop the reaction. Cells were washed an additional 3 times with Carnoy's fixative, before being dropped onto humidified glass sides for metaphase cell preparations. For ECdetect analyses, DAPI was added to the slides. Images in the main figures were captured with an Olympus FV1000 confocal microscope. All other images were captured at a magnification of 1000 with an Olympus BX43 microscope equipped with a QiClick cooled camera. FISH was performed by adding the appropriate DNA FISH probe onto the fixed metaphase spreads. A coverslip was added and sealed with rubber cement. DNA denaturation was carried out at 75° C. for 3-5 minutes and the slides were allowed to hybridize overnight at 37° C. in a humidified chamber. Slides were subsequently washed in 0.4×SSC at 50° C. for 2 minutes, followed by a final wash in 2×SSC/0.05% Tween-20. Metaphase cells and interphase nuclei were counterstained with DAPI, a coverslip was applied, and images were captured.

Turning to `C#Cc1cccc(Nc2ncnc3cc(OCCOC)c(OCCOC)cc23)c1` [Erlotinib], the “Average copy numbers of amplified intervals as determined from sequencing analysis” value in the assay with GBM39 cells [1] stood at 5.4. The “Location of EGFRvIII amplification in FISH images” value in the assay with GBM39 cells [2] (GBM39 cells after Drug Withdrawal) is “EC amplification”; with GBM39 cells [2] (GBM39 cells in response to Erlotinib Treatment (ERZ), naive cells EC amplification), “HSR amplification”.
